Laboratory results published in a melting point compilation (Tetko et al.; mined from patent text by program, amines drawn as free bases though some values may be those of a salt).

| melting point [°C] | Compound |
| --- | --- |
| 153 to 154 | CCn1c(=O)c2c(nc(/C=C/c3ccc(OC)c(OC)c3OC)n2C)n(CC)c1=O |
| 115 to 122 | CCCS(=O)(=O)c1csc2c(=O)n([C@H](C)[C@](O)(Cn3cncn3)c3ccc(F)cc3F)cnc12 |
| 163 | CCOC(=O)c1c(O)c2cc(F)cnc2n(Cc2ccc(OC)cc2)c1=O |
| 134 to 136 | C[C@@H](n1ncn(-c2ccc(OCC(F)(F)C(F)F)cc2)c1=O)[C@](O)(C=O)c1ccc(F)cc1F |
| 165 to 170 | COC(=O)c1ccc(C(=O)OC)c(S(N)(=O)=O)c1 |
| 244 to 263 | COc1cc(N(C)C)ccc1Nc1nc(Nc2ccc3c(c2)C(C)(C)CCC(=O)N3C)ncc1Cl |
| 177 | Cc1cc2c(cc1Br)N1CCc3cccc(c31)C(N1CCN(C)CC1)=N2 |
| 128 to 130 | COc1cc(COc2cc(N)c(Cl)cc2C(=O)CCCCN2CCCCC2)cc(OC)c1 |
| 251 | NS(=O)(=O)c1ccc(-c2noc(-c3cnn4ccc(-c5ccc(C(F)(F)F)cc5)nc34)n2)s1 |
| 109 to 110 | CN(C)CCC=C1c2ccccc2CCc2ccc(S(C)(=O)=O)cc21 |
| 67 | CC(C)(C)COC(=O)C#CC1C(C(=O)OC(C#N)c2cccc(Oc3ccccc3)c2)C1(C)C (centres undefined) |
| 308 to 312 | Cn1c(-c2cc(C(C)(C)C)c(O)c(C(C)(C)C)c2)n[nH]c1=O |
| 111 to 112 | CCN1C(=O)C(C(=O)c2cccs2)c2cc(Cl)cnc21 (centres undefined) |
| 182 to 187 | COc1cn(-c2ccc(N3CCCC(F)(F)C3)cc2F)nc(-c2ccnn2-c2ccccc2)c1=O |
| 128 to 131 | Cc1c(C)n(CC(F)F)c2c(OCc3ccccc3)nncc12 |
| 115 to 117 | C#CCOc1ccc(C(=O)C=Cc2ccccc2)c(O)c1 |

| melting point [°C] | Compound |
| --- | --- |
| 128 to 130 | COC(=O)c1ccc2c(c1)C(S(=O)(=O)c1ccccc1)CC(=O)CO2 (centres undefined) |
| 240 to 241 | CC(C(=O)O)n1cc(-c2ccc(Oc3ccccc3)cc2)c2c(N)ncnc21 (centres undefined) |
| 102 to 108 | CCOCCOc1ccc(-c2ccc3c(c2)C=C(C(=O)OC)CCN3)cc1 |
| 89 to 91 | CCC12CCC3C4=C(CCC3C1C=CC2=O)CC(OC)=CC4 (centres undefined) |
| 124 to 126 | O=C(CS(=O)(=O)c1ccccc1)c1ccnc(Cl)c1 |
| 262 | Cc1ccc(-c2[nH]c(=O)n(C3CCN(Cc4ccccc4C)CC3)c2C)cc1 |
| 99 to 101 | Cc1ccc(C)n1-c1ccc(F)c([N+](=O)[O-])c1 |
| 169 to 170 | CCCN(CCN1CCN(C(=O)c2cc3ccccc3[nH]2)CC1)C1CCc2c(O)cccc2C1 (centres undefined) |
| 199 to 200 | Cc1ccccc1-c1c(NC(=O)Nc2ccc(F)cc2F)c(=O)oc2ccc(C(C)C)cc12 |
| 177 to 178 | CCCC1CCC(=O)C=C1c1ccc(OCC(=O)O)c(Cl)c1Cl (centres undefined) |
| 154 to 155 | CCCCn1nnc(NCc2ccc(-c3ccccc3-c3nnn[nH]3)cc2)c1C(=O)O |
| 252 to 255 | O=c1c2c(Cc3ccccc3C(F)(F)F)n[nH]c2c2cccnc2n1-c1cccc(OC(F)(F)F)c1 |
| 221 to 222 | CC(=O)Nc1c(C(=O)c2ccccc2)[nH]c2cccc(Cl)c12 |
| 118 to 120 | CCOC1(OCC)C[C@@H](C(=O)O)[C@@H]1C(=O)O (relative stereo) |
| 228 to 229 | O=C1Nc2cc(F)ccc2Oc2ccccc21 |

Continued, compound first:

| Compound | melting point [°C] |
| --- | --- |
| CCN1C(=O)C(=CC=C2C=C3c4ccccc4CCN3C3=C2CCCC3)C(=O)N(CC)C1=S | 320 |
| CCOP(=O)(Cc1ccc(NC(=O)CCc2cnoc2-c2ccccc2)cc1)OCC | 139 to 140 |
| COc1cc(-c2n[nH]c(N)n2)c(OC)cc1C | 248 |
| O=c1[nH]c(NCCSCc2ccco2)ncc1Cc1cccnc1 | 136 to 139 |
| CC1=CC(OC(=O)c2ccc(N(C)C)cc2)C(O)C(C)(C)CC1=O (centres undefined) | 162 to 163 |
| O=C1CCC(N2C(=O)c3cccc(CNC(=O)c4ccc(F)c(C(F)(F)F)c4)c3C2=O)C(=O)N1 (centres undefined) | 171 to 173 |
| COC1=CCC2=C(CCC3C2CCC2(C)C(O)CCC32)C1 (centres undefined) | 110 |
| CCCC(=O)c1ccc(=O)[nH]c1C | 167 to 168 |
| CS/C(=N\O)C(F)(F)F | 52 to 54 |
| CC(=O)Nc1ccc(CCC2CSC(=O)NN2)cc1 (centres undefined) | 235 to 240 |
| CC(C)(CSc1ccc(Cl)cc1)C(O)C(Oc1ccc(Cl)cc1)n1cncn1 (centres undefined) | 132 |
| CCCCCCCC(=O)Oc1ccc2nc(S(N)(=O)=O)sc2c1 | 114 |
| COc1c(Cl)cc2c(=O)[nH]c(=O)[nH]c2c1OC | 272 to 273 |
| COc1ccc2c(c1OC)CC=C2c1c[nH]cn1 | 150 |
| COc1cccc(-n2c(=O)c3c(c4cccnc42)OCC3)c1 | > 260 |
| CCCCOc1ccc(S(=O)(=O)C2(C(=O)NO)CCN(CCCC)CC2)cc1 | 121 |
| CCCCNc1cccnc1S(N)(=O)=O | 100 to 101 |
| CCCCN(c1nc(N(CC)CC)nc(N(CCCC)C2CC(C)(C)NC(C)(C)C2)n1)C1CC(C)(C)NC(C)(C)C1 | 74 to 76 |
| CCOC(=O)C(N)=Cc1ccc(OCC(O)CNC(C)(C)C)cc1 (centres undefined) | 99 to 100 |
| COc1ccc(-c2cnn(-c3cccc(C)n3)c(=O)c2)cc1 | 167 to 168 |
| Cc1c(Cl)nnc2c1CN(C(=O)c1ccccc1F)CC2 | 151 to 153 |
| Cc1cc2sccc2c(N)n1 | 136 |
| CCCc1ccc(-c2ccc(-c3cccs3)c(F)c2)cc1 | 88 |

| Compound | melting point [°C] |
| --- | --- |
| O=C1c2cccc(SCCC(O)O)c2C(=O)c2cccc(SCCC(O)O)c21 | 238 to 239 |
| CN(C)C(=O)c1c2ccc(Cl)cc2c(-c2ccccc2)n1C | 86 to 88 |
| Cc1ccc2cccc(OCc3c(Cl)ccc(N4CC(=O)NCC4=O)c3Cl)c2n1 | 211 to 213 |
| COc1cc2[nH]c3cc(OC)c(OC)cc3c2cc1OC | 232 to 233 |
| CCC(C)(C)c1ccc(S(=O)(=O)N2C(=O)C(NCCN3CCOCC3)(c3ccccc3Cl)c3cc(Cl)ccc32)cc1 (centres undefined) | 147 |
| O=C(CCCCCNC(=O)CCc1ccccc1)NO | 107 |
| CCS(=O)C1(Cl)CC2C(Cc3ccccc3)C(=O)N2C1C(=O)OCc1ccccc1 (centres undefined) | 118 to 123 |
| CC1CCC(c2ccc(Cl)c(Cl)c2)=NN1S(=O)(=O)c1ccc(I)cc1 (centres undefined) | 194 to 196 |
| COc1c2c(cc3ccc(OC(C)=O)cc13)-c1ccc(OC(C)=O)cc1CO2 | 165 to 167 |
| Cc1ccc(CNc2cccc3c2CN(C2CCC(=O)NC2=O)C3=O)o1 (centres undefined) | 242 to 244 |
| O=S(=O)(CCO)CCC(c1cc(F)ccc1F)S(=O)(=O)c1ccc(Cl)cc1 (centres undefined) | 111 to 113 |
| Clc1ncc(-c2ccsc2)cn1 | 154 to 157 |
| O=C1C=c2c(c3c4ccccc4oc3c3[nH]c4ccccc4c23)=N1 | > 300 |
| O=[N+]([O-])c1cccc(O)c1Cl | 130 |
| COC1CCC2C3C(C)CC4=CC(=O)C(C)CC4(C)C3CCC12C (centres undefined) | 123 to 126 |
| CCN(CC)C(=O)NC1CC2c3cccc4[nH]c(C#Cc5cccs5)c(c34)CC2N(C)C1 (centres undefined) | 252 to 256 |
| C(#COCC1CCN(Cc2ccccc2)CC1)Cc1ccccc1 | 120 to 123 |
| Cc1cccc(Nn2cnc(C)c2-c2cccc(C#N)c2)c1 | 138 to 140 |
| COc1ccc(S(=O)(=O)c2sc(S(N)(=O)=O)cc2C)cc1 | 140 to 143 |
| COc1ccccc1C1=NC(C)(C)CO1 | 70 to 72 |
| CN(C)/C=C/C(=O)c1ccc(OCCCCN2C(=O)c3ccccc3C2=O)cc1 | 109 to 111 |
| COc1cc2c(c(OC)c1OC)C(C#N)N(C(=O)c1ccccc1)C=C2 (centres undefined) | 158 to 160 |
| O=c1nc(-c2ccc3c(c2)OCCO3)c2cc3c(cc2[nH]1)OCO3 | > 300 |

| Compound | melting point [°C] |
| --- | --- |
| O=c1ncc(Br)cn1CCO | 177 to 179 |
| COCC(=O)NS(=O)(=O)c1cccc(-c2cccc(-c3cc(-c4ccc(C(F)(F)F)cc4)cc(C)n3)n2)c1 | 188 |
| CC(C)(C)SC1CN(C(=O)NCCN2C(=O)c3ccccc3C2=O)CC1NS(=O)(=O)c1ccc(Oc2ccccc2)cc1 (centres undefined) | 105 to 106 |
| Cc1cccc(NC(=O)NC2N=C(C3CC3)c3cccc(C)c3N(CC(=O)N3CC4CCC(CC4)C3)C2=O)c1 (centres undefined) | 172 to 174 |
| CC1=C(C(=O)NN)C(c2ccccc2Cl)c2c[nH]nc2N1 (centres undefined) | 220 |
| Cc1nc(C=O)c2n1-c1ccc(Cl)cc1C(c1ccccc1F)=NC2 | 190 to 192 |
| CC(C)c1ccc(C(=O)Nc2cn3cc(-n4ccnc4)ccc3n2)cc1 | 291 to 293 |
| CCC(C)C(C)C(=O)Nc1ccc2c(C)cn3c(=O)c(C(=O)OCCNC(=O)c4cccnc4)cnc3c2c1 (centres undefined) | 204 to 210 |
| CCn1c(C(O)(C2CC2)C2CC2)nc(-c2ccncc2)c1-c1ccc(Cl)cc1 | 185 to 188 |
| O=[N+]([O-])c1ccc(C2(Br)CCCCC2)cc1 | 83.5 to 85.5 |
| COc1ccc(CN(CCN(C)CCCCNC(=O)NCCCOc2cccc(CN3CCCCC3)c2)c2ccccn2)cc1 | 68 to 72 |
| Fc1cc(F)c(COc2cccnc2NC(=S)Nc2ccc(Cl)cc2)c(F)c1 | 181 to 183 |
| COc1ccc(-c2[nH]cc(C(C)=O)c2N)cc1 | 198 to 200 |
| CC(=O)NCCCC(=O)N1CC1C#N (centres undefined) | 72 to 75 |
| NC(=O)Nc1ccc2c(OCc3ccccc3-c3ccccc3)cccc2c1 | 159 to 161 |
| COc1ccc(C2(O)c3cc(NC(=O)CC(C)(C)C)c(C)c(C)c3OC2(C)C)c(OC)c1 (centres undefined) | 150 to 151 |
| FC(F)(F)c1ccc(Nc2nc3ccccc3o2)cc1 | 180 to 182 |
| N#Cc1ccccc1CCc1n[nH]c2c1c(=O)n(-c1ccccc1)c1ncccc21 | 316 |
| CNc1nc(Nc2ccc(S(C)=O)cc2)ncc1[N+](=O)[O-] (centres undefined) | 288 |
| CN1Cc2c(-c3nc(CCl)cs3)ncn2-c2ccc(F)cc2C1=O | 239 to 241 |
| COc1cc(C2c3cc4c(cc3C(NC3=CC(=O)N(CCCCCC(=O)O)C3=O)C3COC(=O)C23)OCO4)cc(OC)c1O (centres undefined) | 150 to 152 |
| COc1ccc(Nc2ncc3ccc(=O)n(C(C)C)c3n2)cc1 | 170 |
